Experimental data: US3975538A, “Miticidally active compositions” (priority 1974, dated 1976)

How the values were obtained:
[1] = test system: citrus red mite which show resistance to citrazon; test: Experiment 5 test on citrazon-resistant citrus red mite; type: in vivo; details: Panonychus citri, 48 h, read-out: Death rate
Protocol: 100 female adults of citrus red mite which show resistance to citrazon were released on the leaves of the potted trifoliate orange (The pot: 9 cm in diameter). 20 cc each of the emulsions 100 prepared in Example 4, of compound No.4 and citrazon (mentioned before) for comparison of different concentrations was sprayed on one of the pots. After spraying the pots were kept in a kasten for 2 days and from the number of the surviving mites the death rates were calculated.

[2] = test system: citrus red mite, Panonychus citri; test: Experiment 1 miticidal test (citrus red mite on potted lemon tree); type: in vivo; details: 240 h, larvae and adults, 200 ppm in water, 20 cc spray, 10 days at 28°C, read-out: Evaluation (mortality of mites and eggs)
Protocol: In this experiment, approximately 50 larvae and adults of the citrus red mite, Panonychus citri were first released on the leaves of a young lemon tree, with about 10 leaves, growing in a pot (9 cm in diameter). […] Two days later, each potted plant was sprayed with 20 cc of one of these preparations with a spray gun (under 1 kg/cm^2 pressure, 80 cm distance from the plant) in a spray chamber. After the spraying, the pots were placed in a air-conditioned greenhouse (28°C) for 10 days, the number of mites and eggs surviving on the leaves counted.

[3] = test system: Kanzawa spider mite, Tetranychus kanzawai; test: Experiment 3 miticidal test (Kanzawa spider mite on pea seedling); type: in vivo; details: female adults, 500 ppm in water, 20 cc spray, three repeats, read-out: Evaluation (mortality of mites)
Description: (§1) Criteria for evaluating effectiveness:
In this experiment, one day after approximately 50 female adults of the Kanzawa spider mite, Tetranychus kanzawai, were placed on the leaves of a seedling of the pea plant (5 days after germination), growing in pots (9 cm in diameter), the plant was sprayed with emulsion of the compound of Formula (I), diluted to 500 ppm in water. […] The test was repeated three times.

eggs of citrus red mite = test: Experiment 4 ovicidal test (citrus red mite eggs on trifoliate orange); type: in vivo, Panonychus citri; details: 500 ppm in water, 20 cc spray, 7 days at 28°C, three repeats
Protocol: as §1
In this experiment, 20 female adults of the citrus red mite were released on the leaves of the potted trifoliate orange (15 cm in height). The pots were then placed in a air-conditioned greenhouse (28°C) for 2 days. Then the adults were removed from the plant and the eggs laid on the leaves were subjected to the ovicidal test. The number of the eggs on each plant was counted prior to the chemical application. […] 20 cc of each compound was sprayed on one of the plants. After spraying, the pots were returned to the air-conditioned greenhouse and kept there for 7 days. Then, by microscopic inspection, the numbers of unhatched eggs, the larvae which died after hatching, and the surviving larvae, respectively, on each plant were counted.

[4] = test system: two-spotted spider mite, Tetranychus urticae; test: Experiment 2 miticidal test (two-spotted spider mite on pea seedling); type: in vivo; details: 48 h, female adults, 500 ppm in water, 20 cc spray, 2 days at 28°C, read-out: Evaluation (mortality of mites)
Protocol: as §1
After spraying the pots were placed in a air-conditioned greenhouse (28°C) for 2 days.

SMILES	mortality at 200 ppm [2] [%]	mortality at 500 ppm [3] [%]	Evaluation (ovicidal effectiveness) (eggs of citrus red mite)	mortality at 500 ppm [4] [%]	other results
CCOC(=NOC(=O)c1ccccc1)c1c(OC)ccc(Cl)c1OC [Citrazon, ethyl O-benzoyl-3-chloro-2,6-dimethoxybenzohydroxamate]					mortality at 12.5 ppm [1]: 19.5%; mortality at 25 ppm [1]: 25.8%; mortality at 50 ppm [1]: 40.6%; mortality at 100 ppm [1]: 40.5%; mortality at 200 ppm [1]: 43.5%; mortality at 400 ppm [1]: 68%
CCOC(=NOC(=O)c1ccccc1)c1c(OC)ccc2ccccc12 [Control No. 1, ethyl O-benzoyl-2-methoxy-1-naphthohydroxamate]	< 49	< 49	- (49 % or less)	< 49	
CCOC(=NOC(=O)c1ccc(C)cc1)c1c(OC)ccc2ccccc12 [Control No. 2, ethyl 0-(4-methylbenzoyl)-2-methoxy-1-naphthohydroxamate]	< 49	< 49	- (49 % or less)	< 49	
CCOC(=O)ON=C(OCC)c1c(OC)ccc2ccccc12 [compound 2, ethyl O-ethoxycarbonyl-2-methoxy-1-naphthohydroxamate]	90 to 99		++ (90 - 99 %)		
CCOC(=NOC(=O)SC(C)C)c1c(OC)ccc2ccccc12 [compound 13, ethyl O-isopropylthiocarbonyl-2-methoxy-1-naphthohydroxamate]	100				
